Usually inhibition stands for how much of the control response was suppressed. A higher inhibition goes with a strong effect.

What all share (assay): Kinobeads competition binding, HL60 cell lysate
Common to all, as to conditions: 10 μM free compound

For one test, the target named is T1, LCK (Homo sapiens, UniProt P06239).
T1 construct: Identified kinases with CZC31326 from HL60 lysate; endogenous in cells; host or cells: HL60
The method, then: (§1) To one aliquot of cell lysate 10 μM of the free compound (FIG. 3, CZC31326) was added and allowed to bind to proteins in the lysate. Then the affinity matrix with the immobilized compound (Example 1) was added to capture proteins that were not interacting with the previously added free compound. Beads were separated from the lysate and bead bound proteins were eluted in SDS sample buffer and subsequently separated by SDS-Polyacrylamide gel electrophoresis (FIG. 4). Suitable gel bands were cut out and subjected to in-gel proteolytic digestion with trypsin. The second lysate aliquot was processed identically, however no free compound was added (DMSO solvent control). Peptides originating from samples 1 and 2 were labeled with iTRAQ reagents (iTRAQ 114 and iTRAQ 117) and the combined samples were analyzed with a nano-flow liquid chromatography system coupled online to a tandem mass spectrometer (LC-MS/MS) experiment followed by iTRAQ reporter ion quantification in the MS/MS spectra (Ross et al., 2004. Mol. Cell. Proteomics 3(12):1154-1169). Further experimental protocols can be found in WO2006/134056 and a previous publication (Bantscheff et al., 2007. Nature Biotechnology 25, 1035-1044). Sepharose-beads with the immobilized compound (100 μl beads per pull-down experiment) were equilibrated in lysis buffer and incubated with a cell lysate sample containing 50 mg of protein on an end-over-end shaker (Roto Shake Genie, Scientific Industries Inc.) for 2 hours at 4° C. Beads were collected, transferred to Mobicol-columns (MoBiTech 10055) and washed with 10 ml lysis buffer containing 0.4% NP40 detergent, followed by 5 ml lysis buffer containing 0.2% detergent. To elute bound proteins, 60 μl 2×SDS sample buffer was added to the column. The column was incubated for 30 minutes at 50° C. and the eluate was transferred to a siliconized microfuge tube by centrifugation. Proteins were then alkylated with 108 mM iodoacetamid. Proteins were then separated by SDS-Polyacrylamide electrophoresis (SDS-PAGE). The peptide extracts of samples treated with 10 μM of free compound (CZC31326) and the solvent control (0.5% DMSO) were treated with different variants of the isobaric tagging reagent (iTRAQ Reagents Multiplex Kit, part number 4352135, Applied Biosystems, Foster City, Calif., USA). The iTRAQ reagents are a set of multiplexed, amine-specific, stable isotope reagents that can label peptides on amino groups in up to four different biological samples enabling simultaneous identification and quantitation of peptides. The iTRAQ reagents were used according to instructions provided by the manufacturer. The samples were resuspended in 10 μl 50 mM TEAB solution, pH 8.5 and 10 μl ethanol were added. The iTRAQ reagent was dissolved in 120 μl ethanol and 10 μl of reagent solution were added to the sample. The labeling reaction was performed at room temperature for one hour on a horizontal shaker and stopped by adding 5 μl of 100 mM TEAB and 100 mM glycine in water. The two labeled sampled were then combined, dried in a vacuum centrifuge and resuspended in 10 μl of 0.1% formic acid in water. Relative protein quantitation was performed using peak areas of iTRAQ reporter ion signals essentially as described in an earlier publication (Bantscheff et al., 2007. Nature Biotechnology 25, 1035-1044).

The next test concerns the target T2, CSK (Homo sapiens, UniProt P41240).
T2 construct: endogenous in cells; host or cells: HL60 (DSMZ ACC3)
The method, then: as §1

A further test concerns the target T3, GAK (Homo sapiens, UniProt O14976).
T3 sequence (O14976 1-1311): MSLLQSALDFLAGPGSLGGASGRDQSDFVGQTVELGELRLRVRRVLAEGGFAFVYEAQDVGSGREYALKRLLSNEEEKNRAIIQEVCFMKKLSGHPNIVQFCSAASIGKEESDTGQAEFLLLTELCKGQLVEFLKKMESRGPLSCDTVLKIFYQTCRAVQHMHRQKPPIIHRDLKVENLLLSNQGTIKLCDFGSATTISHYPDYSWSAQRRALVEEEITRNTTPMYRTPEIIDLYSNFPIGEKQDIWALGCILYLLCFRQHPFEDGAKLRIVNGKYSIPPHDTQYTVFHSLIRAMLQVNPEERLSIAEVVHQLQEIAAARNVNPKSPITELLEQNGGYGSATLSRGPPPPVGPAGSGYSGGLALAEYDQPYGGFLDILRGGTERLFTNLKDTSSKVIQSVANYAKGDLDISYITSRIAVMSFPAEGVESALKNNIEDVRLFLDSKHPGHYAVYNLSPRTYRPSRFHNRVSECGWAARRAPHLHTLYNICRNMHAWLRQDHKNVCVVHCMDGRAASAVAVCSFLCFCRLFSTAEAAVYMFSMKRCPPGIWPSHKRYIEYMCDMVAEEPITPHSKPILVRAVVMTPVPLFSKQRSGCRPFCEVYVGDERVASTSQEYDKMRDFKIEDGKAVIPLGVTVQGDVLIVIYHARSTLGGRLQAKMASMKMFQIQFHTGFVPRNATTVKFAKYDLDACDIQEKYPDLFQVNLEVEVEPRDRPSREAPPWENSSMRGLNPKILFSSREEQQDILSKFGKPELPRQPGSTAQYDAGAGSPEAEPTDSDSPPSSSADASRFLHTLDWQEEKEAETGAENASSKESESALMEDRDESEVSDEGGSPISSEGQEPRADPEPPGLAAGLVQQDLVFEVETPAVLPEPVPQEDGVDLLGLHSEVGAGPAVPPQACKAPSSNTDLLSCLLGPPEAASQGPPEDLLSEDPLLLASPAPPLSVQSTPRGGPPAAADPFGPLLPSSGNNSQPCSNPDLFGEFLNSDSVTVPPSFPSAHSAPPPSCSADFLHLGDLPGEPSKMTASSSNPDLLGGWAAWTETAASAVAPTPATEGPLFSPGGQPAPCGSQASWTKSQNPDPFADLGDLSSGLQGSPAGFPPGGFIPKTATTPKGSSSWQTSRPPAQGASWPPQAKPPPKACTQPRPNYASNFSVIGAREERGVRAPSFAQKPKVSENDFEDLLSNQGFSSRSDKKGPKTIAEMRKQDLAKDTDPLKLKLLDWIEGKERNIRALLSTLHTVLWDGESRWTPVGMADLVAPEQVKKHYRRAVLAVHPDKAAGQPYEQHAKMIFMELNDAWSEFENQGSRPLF
The method, then: as §1

The target of a further test is T4, PKCb (Homo sapiens, UniProt P05771).
T4 construct: endogenous in cells; host or cells: HL60
T4 sequence (P05771 whole entry): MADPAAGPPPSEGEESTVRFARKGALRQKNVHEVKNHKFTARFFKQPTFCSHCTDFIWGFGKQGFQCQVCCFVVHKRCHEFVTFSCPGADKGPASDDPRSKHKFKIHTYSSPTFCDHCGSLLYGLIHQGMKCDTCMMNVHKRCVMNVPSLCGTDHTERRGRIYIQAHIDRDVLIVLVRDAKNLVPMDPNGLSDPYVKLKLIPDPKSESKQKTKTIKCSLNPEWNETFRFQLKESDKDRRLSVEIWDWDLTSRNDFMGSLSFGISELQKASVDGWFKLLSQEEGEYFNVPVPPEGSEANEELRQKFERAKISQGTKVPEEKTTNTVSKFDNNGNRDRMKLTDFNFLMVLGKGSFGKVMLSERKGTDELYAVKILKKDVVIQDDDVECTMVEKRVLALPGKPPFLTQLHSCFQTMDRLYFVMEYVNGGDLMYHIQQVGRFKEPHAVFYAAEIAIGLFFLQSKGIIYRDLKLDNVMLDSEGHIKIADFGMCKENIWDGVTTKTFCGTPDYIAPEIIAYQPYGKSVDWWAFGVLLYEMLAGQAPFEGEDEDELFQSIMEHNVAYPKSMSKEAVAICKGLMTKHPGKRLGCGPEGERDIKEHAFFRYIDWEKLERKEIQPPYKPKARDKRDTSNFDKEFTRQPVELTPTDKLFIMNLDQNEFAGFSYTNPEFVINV
The protocol: as §1

The next test deals with T5, CDK10 (Homo sapiens, UniProt Q15131).
T5 construct: endogenous in cells; host or cells: HL60 cells
T5 sequence (Q15131 whole entry): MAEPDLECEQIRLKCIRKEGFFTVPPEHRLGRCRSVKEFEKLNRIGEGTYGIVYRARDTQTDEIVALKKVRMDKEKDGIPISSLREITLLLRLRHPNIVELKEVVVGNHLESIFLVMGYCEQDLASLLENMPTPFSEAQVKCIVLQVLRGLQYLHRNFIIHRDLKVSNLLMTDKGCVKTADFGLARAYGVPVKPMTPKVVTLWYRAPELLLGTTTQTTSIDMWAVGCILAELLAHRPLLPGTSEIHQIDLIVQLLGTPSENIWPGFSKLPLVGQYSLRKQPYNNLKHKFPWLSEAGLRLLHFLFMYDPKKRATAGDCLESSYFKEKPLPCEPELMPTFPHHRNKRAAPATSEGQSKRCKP
The method, then: as §1

Another test has as its target T6, MST4 (Homo sapiens, UniProt Q9P289).
T6 construct: endogenous in cells; host or cells: HL60
The method, then:
as §1

Molecules are shown by their SMILES.

T6 sequence (Q9P289 whole entry): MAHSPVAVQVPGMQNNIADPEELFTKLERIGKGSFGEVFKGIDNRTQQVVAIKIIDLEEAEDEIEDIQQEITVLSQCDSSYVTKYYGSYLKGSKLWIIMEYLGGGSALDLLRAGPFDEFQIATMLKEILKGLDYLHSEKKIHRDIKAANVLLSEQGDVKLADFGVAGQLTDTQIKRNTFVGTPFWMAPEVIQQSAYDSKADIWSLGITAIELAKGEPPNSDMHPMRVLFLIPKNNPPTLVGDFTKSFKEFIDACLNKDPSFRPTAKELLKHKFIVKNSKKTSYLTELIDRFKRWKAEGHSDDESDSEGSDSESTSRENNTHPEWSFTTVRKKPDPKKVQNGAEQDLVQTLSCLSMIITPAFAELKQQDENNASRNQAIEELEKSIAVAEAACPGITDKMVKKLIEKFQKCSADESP
T2 sequence (P41240 whole entry): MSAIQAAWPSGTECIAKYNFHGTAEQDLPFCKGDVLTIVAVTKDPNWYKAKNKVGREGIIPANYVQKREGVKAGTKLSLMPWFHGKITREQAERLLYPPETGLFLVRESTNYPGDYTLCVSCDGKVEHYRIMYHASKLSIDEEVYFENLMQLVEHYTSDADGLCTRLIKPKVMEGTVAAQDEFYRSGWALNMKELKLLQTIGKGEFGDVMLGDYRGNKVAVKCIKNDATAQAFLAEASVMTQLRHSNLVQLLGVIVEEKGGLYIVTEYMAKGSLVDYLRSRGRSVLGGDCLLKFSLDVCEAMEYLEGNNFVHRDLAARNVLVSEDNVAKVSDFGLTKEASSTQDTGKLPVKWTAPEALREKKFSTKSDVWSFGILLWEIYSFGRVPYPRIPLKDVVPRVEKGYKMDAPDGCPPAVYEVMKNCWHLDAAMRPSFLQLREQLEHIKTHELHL
T1 sequence (P06239 whole entry): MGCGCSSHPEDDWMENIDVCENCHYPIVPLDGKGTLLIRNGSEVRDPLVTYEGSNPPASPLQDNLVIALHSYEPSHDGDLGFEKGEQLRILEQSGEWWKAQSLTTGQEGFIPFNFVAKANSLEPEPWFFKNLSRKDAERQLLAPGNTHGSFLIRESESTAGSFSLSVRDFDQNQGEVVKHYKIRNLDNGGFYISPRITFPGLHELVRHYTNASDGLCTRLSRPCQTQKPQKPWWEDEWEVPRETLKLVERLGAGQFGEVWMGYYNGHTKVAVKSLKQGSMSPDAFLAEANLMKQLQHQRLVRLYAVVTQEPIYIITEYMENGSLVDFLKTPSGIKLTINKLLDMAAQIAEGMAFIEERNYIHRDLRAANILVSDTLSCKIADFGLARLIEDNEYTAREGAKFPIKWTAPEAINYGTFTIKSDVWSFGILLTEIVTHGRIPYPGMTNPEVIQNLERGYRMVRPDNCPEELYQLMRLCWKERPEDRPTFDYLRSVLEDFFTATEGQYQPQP

With `CS(=O)(=O)Nc1ccccc1Nc1nc(Nc2cccc(OCCN)c2)ncc1Cl` [CZC31326, N-(2-(2-(3-(2-aminoethoxy)phenylamino)-5-chloropyrimidin-4-ylamino)phenyl)methanesulfonamide], the inhibition at 10 µM on LCK was found to be 86.8%; at GAK, 97.9%; on PKCb, 97.3%; on CDK10, 96.7%; at MST4, 96.1%. The compound further registered a Competition % at CSK of 80.3%.

For the origin of these results see patent US20120270237A9, “METHODS FOR THE IDENTIFICATION OF KINASE INTERACTING MOLECULES AND FOR THE PURIFICATION OF KINASE PROTEINS” (Cellzone AG, priority 2009, published 2012).
